Read-outs that look alike come from different tables or passages of the source.
How the values were obtained:
[1] = for plasma concentration, Without hydrolysis / plasma concentration, Hydrolysis: LOQ 0.25 μg L^−1; for plasma concentration, Hydrolysis: with hydrolysis
[2] = Short-term stability in fortified plasma; type: physicochemical, human
[3] = rat plasma, 0.5 mg kg-1 MDPV ip, 10 min
[4] = rat plasma, 0.5 mg kg-1 MDPV ip, 20 min
[5] = rat plasma, 0.5 mg kg-1 MDPV ip, 30 min
[6] = rat plasma, 0.5 mg kg-1 MDPV ip, 60 min
[7] = rat plasma, 0.5 mg kg-1 MDPV ip, 120 min
[8] = rat plasma, 0.5 mg kg-1 MDPV ip, 240 min
[9] = rat plasma, 0.5 mg kg-1 MDPV ip, 480 min
[10] = rat plasma, 0.5 mg kg-1 MDPV sc, 10 min
[11] = rat plasma, 0.5 mg kg-1 MDPV sc, 20 min
[12] = rat plasma, 0.5 mg kg-1 MDPV sc, 30 min
[13] = rat plasma, 0.5 mg kg-1 MDPV sc, 60 min
[14] = rat plasma, 0.5 mg kg-1 MDPV sc, 120 min
[15] = rat plasma, 0.5 mg kg-1 MDPV sc, 240 min
[16] = rat plasma, 0.5 mg kg-1 MDPV sc, 480 min
[17] = High QC 750 μg L^−1, n=5, vs freshly fortified
[18] = Low QC 0.75 μg L^−1, n=5, vs freshly fortified
[19] = Medium QC 25 μg L^−1, n=5, vs freshly fortified

## CCCC(C(=O)c1ccc(O)c(O)c1)N1CCCC1 (stereo not shown) [3,4-catechol-PV, 3,4-dihydroxypyrovalerone]
[1]; rat plasma after 0.5 mg kg-1 MDPV ip or sc, with vs without hydrolysis
  change of plasma concentration without the deconjugation step (hydrolysis): greatly decreased
[1]; rat plasma after MDPV, concluded from hydrolysis comparison
  form present in rat plasma: primarily present as the conjugated forms
[1]; rat plasma, 0.5 mg kg-1 MDPV ip, 0 min (before dosing)
  plasma concentration, Without hydrolysis: <LOQ
[1]; [3]
  plasma concentration, Hydrolysis: 4.3 ng/mL
  plasma concentration, Without hydrolysis: <LOQ
[1]; [4]
  plasma concentration, Hydrolysis: 5.1 ng/mL
  plasma concentration, Without hydrolysis: <LOQ
[1]; [5]
  plasma concentration, Hydrolysis: 4.9 ng/mL
  plasma concentration, Without hydrolysis: <LOQ
[1]; [6]
  plasma concentration, Hydrolysis: 3.7 ng/mL
  plasma concentration, Without hydrolysis: <LOQ
[1]; [7]
  plasma concentration, Hydrolysis: 9.6 ng/mL
  plasma concentration, Without hydrolysis: <LOQ
[1]; [8]
  plasma concentration, Hydrolysis: 11.8 ng/mL
  plasma concentration, Without hydrolysis: <LOQ
[1]; [9]
  plasma concentration, Hydrolysis: 5.3 ng/mL
  plasma concentration, Without hydrolysis: <LOQ
[1]; rat plasma, 0.5 mg kg-1 MDPV sc, 0 min (before dosing)
  plasma concentration, Without hydrolysis: <LOQ
[1]; [10]
  plasma concentration, Hydrolysis: 1.3 ng/mL
  plasma concentration, Without hydrolysis: <LOQ
[1]; [11]
  plasma concentration, Hydrolysis: 2.7 ng/mL
  plasma concentration, Without hydrolysis: <LOQ
[1]; [12]
  plasma concentration, Hydrolysis: 3.1 ng/mL
  plasma concentration, Without hydrolysis: <LOQ
[1]; [13]
  plasma concentration, Hydrolysis: 3.8 ng/mL
  plasma concentration, Without hydrolysis: <LOQ
[1]; [14]
  plasma concentration, Hydrolysis: 9.4 ng/mL
  plasma concentration, Without hydrolysis: <LOQ
[1]; [15]
  plasma concentration, Hydrolysis: 9.8 ng/mL
  plasma concentration, Without hydrolysis: <LOQ
[1]; [16]
  plasma concentration, Hydrolysis: 3.6 ng/mL
  plasma concentration, Without hydrolysis: <LOQ
[1]; rat plasma, 0.5 mg kg^−1 MDPV intraperitoneal, samples 10-480 min after dosing
  plasma concentration range after intraperitoneal dosing: 3.7 to 11.8 ng/mL
[1]; rat plasma, 0.5 mg kg^−1 MDPV subcutaneous, samples 10-480 min after dosing
  plasma concentration range after the subcutaneous dose: 1.3 to 9.8 ng/mL
[2]; [17]
  Stability (% difference) 3 freeze-thaw cycles: −3.6 % difference
  Stability (% difference) 72h at 4°C: −3 % difference
[2]; [18]
  Stability (% difference) 3 freeze-thaw cycles: −3.2 % difference
  Stability (% difference) 72h at 4°C: −7.3 % difference
[2]; [19]
  Stability (% difference) 3 freeze-thaw cycles: −2.6 % difference
  Stability (% difference) 72h at 4°C: 6.5 % difference

From PMC4150738 (Analytica chimica acta, 2014)
